Results on seven molecules are retold here after patent publication US9775856B2, “C-glycosylpolyphenol antidiabetic agents, effect on glucose tolerance and interaction with beta-amyloid. therapeutic applications of the synthesized agent(s) and of Genista tenera ethyl acetate extracts containing some of those agents” (FACULDADE DE CIENCIAS DA UNIVERSIDADE DE LISBOA, priority 2012, dated 2017).

≈ marks a conversion by molar mass, not a printed value.

Series [1] deals with mouse HII4E hepatoma cells. The experiment in a line: In vitro acute toxicity, MTT cell viability assay. It is filed as cell-based. Conditions: 24 h exposure. Here is the method:
Acute cytotoxicity measurements were performed by the MTT method. The 3-(4,5-dimethylthiazol-2-yl)-2,5-diphenyltetrazolium bromide (MTT) assay was used to quantify metabolically viable cells in all samples. Adherent cells (mouse HII4E hepatoma cells) were seeded onto 96-well plates, allowed to attach for 24 h and exposed to the test compound for the following 24 h. Positive control (hydrogen peroxide), negative control (DMSO) and chloramphenicol were also included. At 48 h of culture, MTT was added to the cells at a final concentration of 0.5 mg/mL, followed by an incubation period of 3 h to allow the formazan crystals to form. After incubation, medium was removed, cells were washed twice to remove traces of medium and un-metabolized MTT, and DMSO (100 μL) was added to each well. Solubilisation of formazan crystals was performed by agitation in a 96-well plate shaker for 20 min at room temperature. Absorbance of each well was quantified at 550 nm, using 620 nm as reference wavelength on a scanning multiwell spectrophotometer (automated microplate reader).
A general note: Tetrazolium assays rely on reduction of a dye to a coloured formazan, in cell work by metabolically active cells.

Series [2] concerns STZ induced diabetic Wistar rats. Conditions: previous research work; cited from earlier work.
Series [3] can be described thus: 1H-NMR 2D DOSY diffusion coefficient. Format: physicochemical. The conditions noted are these: DOSY spectrum acquired on the G. tenera extract at 25° C.
Experimental: NMR experiments were recorded on a Varian 400-MHz Mercury instrument. The basic VARIAN sequences were employed for 2D-TOCSY, 2D-NOESY, ^13C-HSQC, DOSY and STD experiments. […] A ^1H spectrum was acquired with a recycle delay of 60 s to achieve the complete relaxation of all the resonances at each scan.
A further series in a line: Solubility in PBS. Format: physicochemical. Conditions: pure compound in PBS.
In another series the target is T1, Aβ1-42 oligomers (Homo sapiens, UniProt P05067).
T1 construct: lyophilized Aβ1-42 was dissolved in 10 mM NaOD in D2O at a concentration of 160 μM
The experiment in a line: NMR binding studies (STD-NMR, trNOESY) with beta-amyloid oligomers. The conditions noted are these: Aβ1-42 80 uM, deuterated PBS pH 7.5.

One may read the IC50 as the midpoint of a concentration-inhibition curve. Lower therefore signals greater potency in that assay.

T1 sequence (P05067 672-713): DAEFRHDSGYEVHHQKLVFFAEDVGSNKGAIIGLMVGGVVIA
Experimental for Aβ1-42 oligomers: The selection was made through sample characterization by NMR spectroscopy, as previously described Immediately before use, lyophilized Aβ1-42 was dissolved in 10 mM NaOD in D2O at a concentration of 160 μM, then diluted 1:1 with 10 mM phosphate buffer saline, pH 7.4 containing 100 mM NaCl (PBS) and ethyl acetate extract of G. tenera or one of the tested compounds. […] The pH of each sample was verified with a Microelectrode (Mettler Toledo) for 5 mm NMR tubes and adjusted with NaOD and/or DCl. All pH values were corrected for isotope effect.
NMR experiments were recorded on a Varian 400-MHz Mercury instrument. The basic VARIAN sequences were employed for 2D-TOCSY, 2D-NOESY, ^13C-HSQC, DOSY and STD experiments. For STD, a train of Gaussian-shaped pulses each of 50 ms was employed to saturate selectively the protein envelope; the total saturation time of the protein envelope was adjusted by the number of shaped pulses and was varied between 3 s and 0.3 s. A ^1H spectrum was acquired with a recycle delay of 60 s to achieve the complete relaxation of all the resonances at each scan.

For `O=C(N[C@H](CO)[C@H](O)c1ccc([N+](=O)[O-])cc1)C(Cl)Cl` [Chloramphenicol, chloramphenicol], in series [1], the IC50 turned out to be 143 µg/mL (≈ 443 µM).
Regarding `OO` [Compound H2O2, hydrogen peroxide], the “IC50 in vitro acute toxicity” value in series [1] came to 2 µg/mL (≈ 58.8 µM).
With `C[S+](C)[O-]` [DMSO], the “IC50 in vitro acute toxicity” value in series [1] worked out at 199 µg/mL (≈ 2550 µM).
Take `O=c1cc(-c2ccc(O)cc2)oc2cc(O)cc(O)c12` [apigenin]: the “blood glucose levels” value in series [2] was “significantly lowered blood glucose levels”.
As for `COc1cc(-c2cc(=O)c3c(O)cc(O)cc3o2)ccc1O` [chrysoeriol], the “blood glucose levels” value in series [2] is recorded as “significantly lowered blood glucose levels”.
In the case of `O=c1c(-c2ccc(O)cc2)coc2cc(O[C@@H]3O[C@H](CO)[C@@H](O)[C@H](O)[C@H]3O)cc(O)c12` [genistein-7-O-glucoside, Genistein 7-O-β-D-glucoside], the diffusion coefficient in series [3] was 2.65±0.035 10^−10 m^2/s. Also, in “Solubility in PBS”, the “solubility in PBS” value was “insolubility”.
As to `O=c1c(-c2ccc(O)cc2)coc2cc(O)cc(O)c12` [genistein], the “blood glucose levels” value in series [2] was “significantly lowered blood glucose levels”. For the same molecule, the “binding to Aβ1-42 oligomers (STD-NMR, trNOESY), words” value on Aβ1-42 oligomers is given as “efficient Aβ oligomer ligand”.
